Experiments:
[1] = system: soybean; assay: Test A pre-emergence; type: in vivo; parameters: key: 0 = no effect, 10 = maximum effect; letter = response symbol
Method in brief: (§1)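 Seeds and tubers were treated preemergence in a growth medium with compound in a nonphytotoxic solvent, against untreated controls; emerged plants such as two-leaf barnyardgrass and five-leaf cotton were sprayed postemergence, against solvent-sprayed controls. After sixteen days in a greenhouse, response was rated visually from 0 to 10.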

[2] = system: morningglory; assay: Test A pre-emergence; type: in vivo, Ipomoea spp.; parameters: key: 0 = no effect, 10 = maximum effect; letter = response symbol
Method in brief: as §1

[3] = system: cocklebur; assay: Test A pre-emergence; type: in vivo, Xanthium spp.; parameters: key: 0 = no effect, 10 = maximum effect; letter = response symbol
Method in brief: as §1

[4] = system: cassia; assay: Test A pre-emergence; type: in vivo, Cassia tora; parameters: key: 0 = no effect, 10 = maximum effect; letter = response symbol; details: 0.4 kg/ha
Method in brief: as §1

[5] = system: nutsedge; assay: Test A pre-emergence; type: in vivo, Cyperus rotundus
Text: (§2) The activity of these compounds was discovered in a number of greenhouse and field tests. The ratings are based on a numerical scale extending from 0=no effect, to 10=maximum effect. The accompanying descriptive symbols have the following meanings:
(§3) Seeds of crabgrass (Digitaria spp.), barnyardgrass (Echinochloa crusgalli), wild oats (Avena fatua), cassia (Cassia tora), morningglory (Ipomoea spp.), cocklebur (Xanthium spp.), sorghum, corn, soybean, rice, wheat and nutsedge tubers (Cyperus rotundus) were planted in a growth medium and treated preemergence with a nonphytotoxic solvent solution of the compounds of Table XII. Other batches of seeds and tubers for all of the foregoing weed and crop plants were planted at the same time as controls. The control plantings were untreated; i.e., neither any compound nor any solvent was applied. At the same time, cotton having five leaves (including cotyledonary ones), bush beans with the third trifoliate leaf expanding, crabgrass with two leaves, barnyardgrass with two leaves, wild oats with two leaves, cassia with three leaves (including cotyledonary ones), morningglory with four leaves (including the cotyledonary ones), cocklebur with four leaves (including the cotyledonary ones), sorghum with four leaves, corn with four leaves, soybean with two cotyledonary leaves, rice with three leaves, wheat with one leaf, and nutsedge with three-five leaves were sprayed with a nonphytotoxic solvent solution of the compounds of Table XII. Other groups of all the same weed and crop plants were sprayed with the same nonphytotoxic solvent so as to provide control plants. Preemergence and postemergence treated plants and controls were maintained in a greenhouse for sixteen days, then all treated plants were compared with their respective controls and rated visually for response to treatment.

[6] = system: barnyardgrass; assay: Test A pre-emergence; type: in vivo, Echinochloa crusgalli; parameters: key: 0 = no effect, 10 = maximum effect; letter = response symbol; details: 0.4 kg/ha
Method in brief: as §1

[7] = system: wheat; assay: Test A post-emergence; type: in vivo; parameters: key: 0 = no effect, 10 = maximum effect; letter = response symbol
Method in brief: as §1

[8] = system: sorghum; assay: Test A post-emergence; type: in vivo; parameters: key: 0 = no effect, 10 = maximum effect; letter = response symbol
Method in brief: as §1

[9] = system: rice; assay: Test A post-emergence; type: in vivo; parameters: key: 0 = no effect, 10 = maximum effect; letter = response symbol
Method in brief: as §1

[10] = system: soybean; assay: Test A post-emergence; type: in vivo; parameters: key: 0 = no effect, 10 = maximum effect; letter = response symbol
Method in brief: as §1

[11] = system: cotton; assay: Test A post-emergence; type: in vivo; parameters: key: 0 = no effect, 10 = maximum effect; letter = response symbol
Method in brief: as §1

[12] = system: corn; assay: Test A post-emergence; type: in vivo; parameters: key: 0 = no effect, 10 = maximum effect; letter = response symbol
Method in brief: as §1

[13] = system: nutsedge; assay: Test A post-emergence; type: in vivo, Cyperus rotundus; parameters: key: 0 = no effect, 10 = maximum effect; letter = response symbol
Method in brief: as §1

[14] = system: cassia; assay: Test A post-emergence; type: in vivo, Cassia tora; parameters: key: 0 = no effect, 10 = maximum effect; letter = response symbol
Method in brief: as §1

[15] = system: barnyardgrass; assay: Test A post-emergence; type: in vivo, Echinochloa crusgalli; parameters: key: 0 = no effect, 10 = maximum effect; letter = response symbol
Method in brief: as §1

[16] = system: wild oats; assay: Test A post-emergence; type: in vivo, Avena fatua; parameters: key: 0 = no effect, 10 = maximum effect; letter = response symbol
Method in brief: as §1

[17] = system: morningglory; assay: Test A post-emergence; type: in vivo, Ipomoea spp.; parameters: key: 0 = no effect, 10 = maximum effect; letter = response symbol
Method in brief: as §1

[18] = system: cocklebur; assay: Test A post-emergence; type: in vivo, Xanthium spp.; parameters: key: 0 = no effect, 10 = maximum effect; letter = response symbol
Method in brief: as §1

[19] = system: bush bean; assay: Test A post-emergence; type: in vivo, bush beans; parameters: key: 0 = no effect, 10 = maximum effect; letter = response symbol
[20] = system: crabgrass; assay: Test A post-emergence; type: in vivo, Digitaria spp.; parameters: key: 0 = no effect, 10 = maximum effect; letter = response symbol
Method in brief: as §1

[21] = system: wheat; assay: Test A pre-emergence; type: in vivo; parameters: key: 0 = no effect, 10 = maximum effect; letter = response symbol; details: 0.4 kg/ha
Method in brief: as §1

[22] = system: sorghum; assay: Test A pre-emergence; type: in vivo; parameters: key: 0 = no effect, 10 = maximum effect; letter = response symbol
Method in brief: as §1

[23] = system: rice; assay: Test A pre-emergence; type: in vivo; parameters: key: 0 = no effect, 10 = maximum effect; letter = response symbol; details: 0.4 kg/ha
Method in brief: as §1

[24] = system: corn; assay: Test A pre-emergence; type: in vivo; parameters: key: 0 = no effect, 10 = maximum effect; letter = response symbol
Method in brief: as §1

[25] = system: wild oats; assay: Test A pre-emergence; type: in vivo, Avena fatua; parameters: key: 0 = no effect, 10 = maximum effect; letter = response symbol; details: 0.4 kg/ha
Method in brief: as §1

[26] = system: crabgrass; assay: Test A pre-emergence; type: in vivo, Digitaria spp.; parameters: key: 0 = no effect, 10 = maximum effect; letter = response symbol
Text: as §2, §3

Structure (SMILES) | response rating ([1]; 0.4 kg/ha) [H] | response rating ([2]; 0.4 kg/ha) | response rating ([3]; 0.4 kg/ha) [G] | response rating ([7]; 0.4 kg/ha) [C] | response rating ([8]; 0.4 kg/ha) [C] | response rating ([9]; 0.4 kg/ha) [C] | response rating ([10]; 0.4 kg/ha) [C] | response rating ([11]; 0.4 kg/ha) [C] | response rating ([12]; 0.4 kg/ha) [C] | response rating ([13]; 0.4 kg/ha) | response rating ([14]; 0.4 kg/ha) [C] | response rating ([15]; 0.4 kg/ha) [C] | response rating ([16]; 0.4 kg/ha) [C] | response rating ([17]; 0.4 kg/ha) [C] | response rating ([18]; 0.4 kg/ha) [C] | response rating ([19]; 0.4 kg/ha) [C] | also measured
COc1nc(C)nc(NC(=O)NS(=O)(=O)c2ccccc2C(=O)Oc2ccccc2C)n1 | 9 | 9G | 9 |  |  |  |  |  |  |  |  |  |  |  |  |  | response rating [4]: 9G; response rating ([5]; 0.4 kg/ha): 8G; response rating [6]: 9H
COC(=O)c1ccccc1S(=O)(=O)NC(=O)Nc1nc(C)cc(C)n1 [drawing 412] |  |  |  | 9 | 9 | 10 | 9 | 9 | 9 | 9C | 9 | 10 | 9 | 10 | 10 | 9 | response rating ([7]; 2 kg/ha): 9C; response rating ([8]; 2 kg/ha): 10C; response rating ([9]; 2 kg/ha): 10C; response rating ([10]; 2 kg/ha): 6C; response rating ([11]; 2 kg/ha): 9C; response rating ([12]; 2 kg/ha): 9C; response rating ([13]; 2 kg/ha): 9C; response rating ([14]; 2 kg/ha): 9C; response rating ([15]; 2 kg/ha): 10C; response rating ([16]; 2 kg/ha): 9C; response rating ([17]; 2 kg/ha): 10C; response rating ([18]; 2 kg/ha): 9C; response rating ([19]; 2 kg/ha): 9C; response rating ([20]; 0.4 kg/ha): 9C; response rating ([20]; 2 kg/ha): 9C
COC(=O)c1ccccc1S(=O)(=O)NC(=O)Nc1nc(OC)cc(OC)n1 [drawing 414] |  |  |  | 9 | 9 | 8 | 9 | 9 | 9 | 10C | 9 | 9 | 9 | 10 | 9 | 9 | 
COC(=O)c1ccccc1S(=O)(=O)NC(=O)Nc1nc(C)nc(OC)n1 [drawing 415] |  |  |  | 10 | 10 | 10 | 9 | 9 | 10 | 9C |  | 10 | 10 | 10 | 9 | 9 | response rating ([20]; 0.4 kg/ha): 10C
COC(=O)c1ccccc1S(=O)(=O)NC(=O)Nc1nc(C)nc(N(C)C)n1 [drawing 472] |  |  |  | 9 | 10 | 10 | 9 | 9 | 9 | 8G | 9 | 10 | 9 | 10 | 9 | 9 | 
COc1nc(NC(=O)NS(=O)(=O)c2ccccc2C(=O)OCCCl)nc(OC)n1 [drawing 489] | 9 | 9C | 9 |  |  |  |  |  |  |  |  |  |  |  |  |  | response rating [21]: 5G; response rating ([22]; 0.4 kg/ha): 9G; response rating [23]: 9H; response rating ([24]; 0.4 kg/ha): 9G; response rating [25]: 8G; response rating ([26]; 0.4 kg/ha): 4G
Cc1cc(C)nc(NC(=O)NS(=O)(=O)c2ccccc2C(=O)O)n1 [drawing 511] |  |  |  |  |  |  |  |  |  |  |  |  |  |  |  |  | response rating ([22]; 10 kg/ha): 5G; response rating ([1]; 10 kg/ha): 4G; response rating ([24]; 10 kg/ha): 8; response rating ([2]; 10 kg/ha): 7G; response rating ([3]; 10 kg/ha): 9G; response rating ([26]; 10 kg/ha): 1C; response rating ([5]; 10 kg/ha): 9G
COc1cc(C)nc(NC(=O)NS(=O)(=O)c2ccccc2C(=O)CCC(C)C)n1 [drawing 516] | 8 | 9G | 9 |  |  |  |  |  |  |  |  |  |  |  |  |  | response rating [21]: 9G; response rating ([22]; 0.4 kg/ha): 9H; response rating ([24]; 0.4 kg/ha): 9G; response rating [4]: 9G; response rating ([5]; 0.4 kg/ha): 9G
